Reference: PubChem BioAssay (NCI)
“And” between values parts separate entries of the source, which are not always exact repeats. Identical values can stand only once.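 Tested at 5 concentrations; 48 h exposure; 96-well plates; endpoints linearly interpolated, else capped at highest concentration. The concentration for 50% growth inhibition is given as GI50. TGI: total growth inhibition.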

How the values were obtained:
Test in all cases: NCI anticancer screen, dose series, 48 h
HCC-2998 colon = tested on: HCC-2998 colon
HOP-62 NSCLC = tested on: HOP-62 NSCLC
HT29 colon = tested on: HT29 colon
MCF7 breast = tested on: MCF7 breast
MOLT-4 leukemia = tested on: MOLT-4 leukemia
PC-3 prostate = tested on: PC-3 prostate
SK-MEL-28 melanoma = tested on: SK-MEL-28 melanoma
SK-MEL-5 melanoma = tested on: SK-MEL-5 melanoma
T-47D breast = tested on: T-47D breast
U251 CNS = tested on: U251 CNS

| Structure (SMILES) | GI50 (HCC-2998 colon) | TGI (HCC-2998 colon) | GI50 (HOP-62 NSCLC) | TGI (HOP-62 NSCLC) | GI50 (HT29 colon) | TGI (HT29 colon) | GI50 (MCF7 breast) | TGI (MCF7 breast) | GI50 (MOLT-4 leukemia) | TGI (MOLT-4 leukemia) | GI50 (PC-3 prostate) | TGI (PC-3 prostate) | GI50 (SK-MEL-28 melanoma) | TGI (SK-MEL-28 melanoma) | GI50 (SK-MEL-5 melanoma) | TGI (SK-MEL-5 melanoma) | GI50 (T-47D breast) | TGI (T-47D breast) | GI50 (U251 CNS) | TGI (U251 CNS) |
| --- | --- | --- | --- | --- | --- | --- | --- | --- | --- | --- | --- | --- | --- | --- | --- | --- | --- | --- | --- | --- |
| CC1=CC(C)=NN=C(N)N1S(=O)(=O)c1cc(C)c(Cl)cc1SCc1ccccc1 | 11.9 µM | > 100 µM | 72.4 µM | > 100 µM | 24.5 µM | > 100 µM | 13.3 µM | > 100 µM | 6.18 µM | > 100 µM | 6.15 µM | > 100 µM | 88.5 µM | > 100 µM | 40.7 µM | > 100 µM | 4.21 µM | 79.1 µM | 16.8 µM | > 100 µM |
| COC1C(O)CC(OC2CC(OC3CC(O[C@@H]4C(=O)c5c(cc6cc(OC7CC(OC8CC(O)C(O)C(C)O8)C(O)C(C)O7)c(C)c(O)c6c5O)CC4[C@H](OC)C(=O)O)OC(C)C3O)OC(C)C2O)OC1C (stereo partly drawn) | 3.1 µM | 20 µM | 1.63 µM | > 33.3 µM | 2.55 µM | 17.9 µM | 0.928 µM | > 33.3 µM | 2.08 µM | > 33.3 µM | 2.4 µM | > 33.3 µM | 1.48 µM | 11.7 µM | 1.34 µM | 8.74 µM | 1.33 µM | 32.1 µM | 1.53 µM | > 33.3 µM |
| Cn1c(=O)c(Oc2ccc(F)cc2F)cc2cnc(NC(C)(C)CO)nc21 | > 25 µM | > 25 µM | > 25 µM | > 25 µM | > 25 µM | > 25 µM | > 25 µM | > 25 µM | > 25 µM | > 25 µM | > 25 µM | > 25 µM | > 25 µM | > 25 µM | > 25 µM | > 25 µM | 13.7 µM | > 25 µM | > 25 µM | > 25 µM |
| Oc1ccc(Nc2ccc3ccccc3c2)cc1 | 4.29 µM | 17.8 µM | 10.4 µM | 41.5 µM | 23 µM | 65.8 µM | 15.8 µM | > 100 µM | 2.75 µM | 32.1 µM | 4.41 µM | 68.2 µM | 14.1 µM | > 100 µM | 3.11 µM | 11.2 µM | 7.1 µM | 25.7 µM | 4.83 µM | 23.9 µM |
| O=C1C(=C(C(F)(F)Cl)C(F)(F)Cl)C2CCC1C2 (stereo not drawn) |  | > 10 µM |  | > 10 µM |  | 5.57 µM |  | > 6.52 µM |  | > 3.53 µM |  | 5.48 µM |  | 3.96 µM |  | 3.11 µM |  | 4.58 µM |  | > 10 µM |
| CN(C)CCN1C(=O)c2cccc3cc([N+](=O)[O-])cc(c23)C1=O |  | 3.56 µM |  | 0.779 µM |  | 2.8 µM |  | 0.743 µM |  | 2.04 µM |  | 3.49 µM |  | 6.85 µM |  | 1.37 µM |  | 29.6 µM |  | 2 µM |
| C=C1CC2(CC(c3ccccc3Cl)OC(c3ccccc3Cl)C2)OC1=O (stereo not drawn) |  | 7.74 µM |  | 21.1 µM |  | 6.68 µM |  | 5 µM |  | 6.19 µM |  | 6.84 µM |  | 3.65 µM |  | 10.4 µM |  | 3.22 µM |  | 15.6 µM |
| COc1cccc(/C=C/C(=O)c2ccc(SC)cc2)c1OC | 16.8 µM | 30.4 µM | 19.3 µM | 34.2 µM | 9.97 µM | 48.8 µM | 11 µM | 35.8 µM | 8.11 µM | 61.6 µM | 17 µM | 43.8 µM | 20 µM | 36.7 µM | 16.4 µM | 30.3 µM | 11.6 µM | 35.2 µM | 10.4 µM | 24 µM |
| CC1(C)S[C@@H]2[C@H](N3C(=O)c4ccccc4C3=O)CN2[C@H]1NC(=O)N[C@@H]1N2C[C@@H](N3C(=O)c4ccccc4C3=O)[C@H]2SC1(C)C |  | > 100 µM |  | > 100 µM |  | > 100 µM |  | > 100 µM |  | > 100 µM |  | > 100 µM |  | > 100 µM |  | > 100 µM |  | > 100 µM |  | 58.5 µM |
| COc1ccc(C=Nc2c(C(=O)Nc3cccc(Cl)c3C)sc3nc(C)c(C(=O)/C=C/c4ccc(OC)cc4)cc23)cc1 | 9.89 µM | > 50 µM | 1.05 µM | > 27.5 µM | 0.306 µM | > 50 µM | 0.293 µM | > 50 µM | 3.68 µM | > 50 µM | 0.281 µM | > 50 µM | 0.288 µM | > 50 µM | 0.856 µM | > 50 µM | 1.28 µM | > 50 µM | 1.56 µM | 18.4 µM |
| O=C(CC1(O)C(=O)N(Cc2ccccc2)c2ccc(Cl)cc21)c1ccc(C(=O)NCC2CCC3(CC2)OOC2(CCCCC2)OO3)cc1 (stereo not drawn) | 1.31 µM | 3.02 µM | 0.189 µM | 0.39 µM | 0.236 µM | 0.544 µM | 1.81 µM | 66.2 µM | 1.59 µM | 4.56 µM | 1.33 µM | 9.11 µM | 8.35 µM | > 100 µM | 1.89 µM | 4.56 µM | 0.653 µM | 3.38 µM | 0.211 µM | 0.426 µM |
| Cc1ccc(Nc2nccc(N(C)c3ccc4c(C)n(C)nc4c3)n2)cc1S(N)(=O)=O | > 100 µM and 29.8 µM | > 100 µM | 8.64 µM and 1.51 µM and 11.7 µM | > 100 µM and > 10 µM and 42.5 µM | 4.03 µM and 0.49 µM and 4.68 µM | > 100 µM | 4.06 µM and 3.1 µM and 6.69 µM | > 100 µM | 4 µM and 2.26 µM and 5.27 µM | 24 µM and > 10 µM and 47.1 µM | 4.98 µM and 7.27 µM and 7.73 µM | > 100 µM |  | > 100 µM and > 10 µM and 84.2 µM | 2.41 µM | 10.8 µM | 3.91 µM and 1.58 µM and 3.98 µM |  | 3.35 µM and 0.95 µM and 8.12 µM | > 100 µM |
| CCCCOC(=O)c1ccc(N)cc1 | 22.7 µM | 66.2 µM | > 100 µM | > 100 µM | > 100 µM | > 100 µM | 74.6 µM | > 100 µM | > 100 µM | > 100 µM | 9.9 µM | > 100 µM | > 100 µM | > 100 µM | 27.8 µM | > 100 µM | 47.6 µM | > 100 µM | > 100 µM | > 100 µM |
